From US7253194B2, “Compounds and inhibitors of phospholipases” (The University of Queensland, priority 2000, dated 2007)
pIC50: −log10 of the molar value.

Biological target: T1, human non-pancreatic sPLA2 (type IIa) (Homo sapiens, UniProt P14555)
T1 construct: Garvan Institute for Medical Research (provided, not a commercial vendor)
T1 sequence (P14555 21-144): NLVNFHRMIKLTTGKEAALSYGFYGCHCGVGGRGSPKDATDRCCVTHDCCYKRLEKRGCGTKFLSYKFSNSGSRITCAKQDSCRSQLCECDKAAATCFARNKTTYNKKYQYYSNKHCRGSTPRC
Assay: Assay for inhibition of human non-pancreatic sPLA2 (type IIa), mixed micelle colorimetric assay
Type: biochemical
Settings: recombinant hIIa-PLA2; substrate diheptanoyl thio-phosphatidyl choline, DTNB detection; IC50 from Dixon plot extrapolation; read-out: IC50, inhibition of human secretary PLA2
Excerpt: Assay for Inhibition of Human Non-Pancreatic sPLA2 (type IIa)
A mixed nucelle colorimetric assay utilising a microtitreplate reader was used as described by Reynolds, L. J.; Hughes, L. L.; Dennis, E. A. “Analysis of human synovial fluid phospholipase A2 on short chain phosphatidylcholine-mixed micelles: Development of a spectrophotometric assay suitable for a microplate reader”. Anal Biochem. 1992, 204, 190-197.
Reagents were obtained commercially in the sPhospholipase A2 Assay Kit, Cayman Chemical Company MI USA. Buffer (25 mM Tris HCl at pH 7.5, 1 mg/mL BSA, 0.3 mM Triton X-100, 100 mM KCl, 10 mM CaCl2), substrate (diheptanoyl thio-phosphatidyl choline), DTNB (5,5′-dithiobis(2-nitrobenzoic acid)) and a 96 well plate were all provided. Recombinant hIIa-PLA2 was provided by the Garvan Institute for Medical Research. […] Standard inhibitor solutions were prepared from anhydrous DMSO. All samples were run in triplicate including the blank and control samples. Data was collected on a Molecular Devices Spectramax 250 Microplate Spectrophotometer using Softmax Pro Microplate Analysis Software v2.21. […] Thio-PC is processed by s-PLA2 and the free thiol produced is detected with DTNB (Ellman's Reagent). 5-Thio-2-nitrobenzoic acid is detected spectrophotometrically at […]. IC50's were determined by assaying inhibitors at a range of concentrations.

With O=C(O)CCC(Cc1ccc(OCc2ccccc2)cc1)NC(=O)CCCCCc1ccccc1 (racemic) [Compound 86, (RS)-5-(4-Benzyloxy-phenyl)-4-(6-phenyl-hexanoylamino)-pentanoic acid] as the compound, how does the pIC50 read?
Its pIC50 is 6.42.

With O=C(O)CCC(Cc1ccc(OCc2ccccc2)cc1)NC(=O)CCCCCCCc1ccccc1 (racemic) [Compound 87, (RS)-5-(4-Benzyloxy-phenyl)-4-(8-phenyl-octanoylamino)-pentanoic acid] as the compound, how does the pIC50 read?
Its pIC50 is 6.36.

COc1ccccc1CCCCCCC(=O)NC(CCC(=O)O)Cc1ccc(OCc2ccccc2)cc1 (racemic) [Compound 88, (RS)-5-(4-Benzyloxy-phenyl)-4-[7-(2-methoxy-phenyl)-heptanoylamino]-pentanoic acid] was tested. Which pIC50 did it give?
The pIC50 was 5.13.

How did the pIC50 turn out when CC(=O)Nc1cccc(CCCCCCC(=O)NC(CCC(=O)O)Cc2ccc(OCc3ccccc3)cc2)c1 (racemic) [Compound 89, (RS)-4-[7-(3-Acetylamino-phenyl)-heptanoylamino]-5-(4-benzyloxy-phenyl)-pentanoic acid] was run?
Its pIC50 is 5.09.

How did the pIC50 turn out when O=C(O)CCC(Cc1ccc(OCc2ccccc2)cc1)NC(=O)CCCCCCc1cccc([N+](=O)[O-])c1 (racemic) [Compound 90, (RS)-5-(4-Benzyloxy-phenyl)-4-[7-(3-nitro-phenyl)-heptanoylamino]-pentanoic acid] was run?
The pIC50 was 5.97.

With O=C(O)CCC(Cc1ccc(OCc2ccccc2)cc1)NC(=O)CCCCCCc1cccnc1 (racemic) [Compound 91, (RS)-5-(4-Benzyloxy-phenyl)-4-(7-pyridin-3-yl-heptanoylamino)-pentanoic acid] as the compound, how does the pIC50 read?
Its pIC50 is 5.82.

With O=C(O)CCC(Cc1ccc(OCc2ccccn2)cc1)NC(=O)CCCCCCc1ccccc1 (racemic) [Compound 95, (RS)-4-(7-Phenyl-heptanoylamino)-5-[4-(pyridin-2-ylmethoxy)-phenyl]-pentanoic acid] as the compound, how does the pIC50 read?
Its pIC50 is 6.37.

O=C(O)CCC(Cc1ccc(OCc2cccnc2)cc1)NC(=O)CCCCCCc1ccccc1 (racemic) [Compound 96, (RS)-4-(7-Phenyl-heptanoylamino)-5-[4-(pyridin-3-ylmethoxy)-phenyl]-pentanoic acid] was tested. Which pIC50 did it give?
Its pIC50 is 6.34.

With O=C(O)CCC(CCc1ccccc1)NC(=O)CCCCCCc1ccccc1 (racemic) [Compound 102, (RS)-6-Phenyl-4-(7-phenyl-heptanoylamino)-hexanoic acid] as the compound, how does the pIC50 read?
Its pIC50 is 5.82.

With O=C(O)CC[C@@H](Cc1cn(Cc2ccccc2)c2ccccc12)NC(=O)CCCCCCc1ccccc1 [Compound 19, (S)-5-(1-Benzyl-1H-indol-3-yl)-4-(7-phenyl-heptanoylamino)-pentanoic acid] as the compound, how does the pIC50 read?
Its pIC50 is 5.24.

With O=C(O)CC[C@@H](Cc1cn(CCCc2ccccc2)c2ccccc12)NC(=O)CCCCCCc1ccccc1 [Compound 20, (S)-4-(7-Phenyl-heptanoylamino)-5-[1-(3-phenyl-propyl)-1H-indol-3-yl]-pentanoic acid] as the compound, how does the pIC50 read?
The pIC50 was 5.54.

O=C(O)CCC(Cc1cn(CCCc2ccccc2)cn1)NC(=O)CCCCCCc1ccccc1 (centres unmarked) [Compound 32, 4-(7-Phenyl-heptanoylamino)-5-[1-(3-phenyl-propyl)-1H-imidazol-4-yl]-pentanoic acid] was tested. Which pIC50 did it give?
Its pIC50 is 5.60.

With O=C(CCCCCCc1ccccc1)N[C@@H](COP(=O)(O)CCCOc1ccccc1)Cc1ccc(OCc2ccccc2)cc1 [Compound 57, (R)-(3-Phenoxy-propyl)-phosphonic acid mono-[3-(4-benzyloxy-phenyl)-2-(7-phenyl-heptanoylamino)-propyl]ester] as the compound, how does the pIC50 read?
Its pIC50 is 6.18.

O=C(CCCCCCc1ccccc1)NC(COP(=O)(O)CCCO)Cc1ccc(OCc2ccccc2)cc1 (centres unmarked) [Compound 62, (3-Hydroxy-propyl)-phosphonic acid mono-[3-(4-benzyloxy-phenyl)-2-(7-phenyl-heptanoylamino)-propyl]ester] was tested. Which pIC50 did it give?
Its pIC50 is 7.62.

With O=C(CCCCCCc1ccccc1)N[C@@H](CCc1nnn[nH]1)Cc1ccc(OCc2ccccc2)cc1 [Compound 66, (S)-7-Phenyl-heptanoic acid [1-(4-benzyloxy-benzyl)-3-(1H-tetrazol-5-yl)-propyl]-amide] as the compound, how does the pIC50 read?
The pIC50 was 6.45.

O=C(O)CC[C@@H](CCc1ccc(Oc2ccccc2)cc1)NC(=O)CCCCCCc1ccccc1 [Compound 106, 6-(4Phenoxy-phenyl)-4R-(7-phenyl-heptanoylamino)-hexanoic acid] was tested. Which pIC50 did it give?
The pIC50 was 7.00.

O=C(O)CC[C@@H](CCc1ccc(Oc2ccccc2)cc1)NC(=O)CCCCCCc1cccnc1 [Compound 107, 6-(4-Phenoxy-phenyl)-4R-(7-pyridin-3-yl-heptanoylamino)-hexanoic acid] was tested. Which pIC50 did it give?
The pIC50 was 5.77.
